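Cells were grown in 96-well plates and exposed to each compound for 48 hours at five concentrations; endpoints were interpolated linearly between bracketing concentrations, or set to the highest concentration if not reached. The concentration for 50% growth inhibition is given as GI50.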 The source made the active and inactive calls. No stated cut-off is given here; in the data, active = GI50 up to about 1.1 µM and inactive = higher.
Experiments:
Test in all cases: inhibition of tumour cell growth, NCI panel, 48 h
SN12C = test system: SN12C
DLD-1 = test system: DLD-1
UACC-62 = test system: UACC-62
UO-31 = test system: UO-31
CCRF-CEM = test system: CCRF-CEM
SK-MEL-2 = test system: SK-MEL-2
SK-MEL-5 = test system: SK-MEL-5
CAKI-1 = test system: CAKI-1
SNB-75 = test system: SNB-75
HOP-92 = test system: HOP-92
NCI-H226 = test system: NCI-H226
A498 = test system: A498
Malme-3M = test system: Malme-3M
SF-268 = test system: SF-268
M14 = test system: M14
IGROV-1 = test system: IGROV-1
SR = test system: SR

Measured: GI50

COc1ccc(NC(=O)/C(=C/c2ccccc2)C(C)=O)cc1
inactive: SN12C 14.4 µM | DLD-1 12.8 µM | UACC-62 7.89 µM | UO-31 15.4 µM | CCRF-CEM 6.12 µM | SK-MEL-2 14.6 µM | SK-MEL-5 13.9 µM | CAKI-1 15.4 µM | SNB-75 7.11 µM | HOP-92 15.8 µM | NCI-H226 19.2 µM | A498 21.1 µM | Malme-3M 16.5 µM | SF-268 15.2 µM | M14 12.9 µM | IGROV-1 17.5 µM

CC12CC(=O)NN=C1c1ccccc1C2 (stereo unspecified)
inactive: SN12C > 100 µM | DLD-1 > 100 µM | UACC-62 > 100 µM | UO-31 > 100 µM | CCRF-CEM > 100 µM | SK-MEL-2 > 100 µM | SK-MEL-5 > 100 µM | CAKI-1 > 100 µM | SNB-75 > 100 µM | NCI-H226 > 100 µM | A498 > 100 µM | Malme-3M > 100 µM | SF-268 > 100 µM | M14 > 100 µM | IGROV-1 > 100 µM

NNC(=O)N/N=C(/CC1(O)C(=O)Nc2ccc(Br)cc21)c1ccccc1 (stereo unspecified)
inactive: SN12C 29.2 µM | DLD-1 35.9 µM | UACC-62 19.8 µM | UO-31 12.5 µM | CCRF-CEM 27.1 µM | SR 31.6 µM | SK-MEL-2 34.4 µM | CAKI-1 30.3 µM | SNB-75 9.27 µM | HOP-92 18.1 µM | NCI-H226 82.6 µM | Malme-3M 33.9 µM | SF-268 21.5 µM | M14 37.6 µM | IGROV-1 41.1 µM

Cc1nc2ccccc2nc1CC(=O)C(=O)Nc1ccc(Cl)cc1Cl
inactive: SN12C > 100 µM | DLD-1 > 100 µM | UACC-62 > 100 µM | UO-31 > 100 µM | CCRF-CEM > 100 µM | SK-MEL-2 > 100 µM | SK-MEL-5 > 100 µM | CAKI-1 > 100 µM | SNB-75 > 100 µM | HOP-92 > 100 µM | A498 > 100 µM | Malme-3M > 100 µM | SF-268 > 100 µM | M14 > 100 µM | IGROV-1 > 100 µM

CC1OC(OC2C(CO)OC(O[C@H]3CC[C@@]4(C)C(=CC[C@H]5[C@@H]6C[C@@H]7O[C@]8(CC[C@@H](C)CN8)[C@@H](C)[C@@H]7[C@@]6(C)CC[C@@H]54)C3)C(O)C2O)C(O)C(O)C1O (stereo partly specified)
inactive: SN12C > 100 µM | DLD-1 55 µM | UACC-62 > 100 µM | UO-31 > 100 µM | CCRF-CEM > 100 µM | SK-MEL-2 > 100 µM | SK-MEL-5 > 100 µM | CAKI-1 > 100 µM | SNB-75 42.1 µM | HOP-92 31.7 µM | A498 > 100 µM | Malme-3M > 100 µM | SF-268 > 100 µM | M14 > 100 µM | IGROV-1 > 100 µM

NC(=O)c1c(-c2ccccc2)c(-c2ccccc2)cc2c(=O)c3ccccc3[nH]c12
inactive: SN12C 40 µM | DLD-1 35.3 µM | UACC-62 25.5 µM | UO-31 33.7 µM | CCRF-CEM 31.4 µM | SK-MEL-2 19.9 µM | SK-MEL-5 13.7 µM | SNB-75 23.6 µM | HOP-92 24.9 µM | A498 19.4 µM | Malme-3M 17.9 µM | SF-268 39 µM | M14 33.2 µM | IGROV-1 22.1 µM

COc1ccc([N+]2=NC(c3ccc([N+](=O)[O-])cc3)=NN(c3ccccc3)C2)cc1
inactive: SN12C > 100 µM | DLD-1 26.5 µM | UO-31 26.9 µM | CCRF-CEM 24.9 µM | SR 32.9 µM | SK-MEL-5 21 µM | NCI-H226 52.4 µM | A498 41.6 µM | Malme-3M > 100 µM | SF-268 97.7 µM | IGROV-1 39 µM

Cc1cccc(-n2c(N)c(-c3nc4ccccc4[nH]3)sc2=S)c1
inactive: SN12C 25.3 µM | DLD-1 25.1 µM | UACC-62 18.4 µM | UO-31 33 µM | CCRF-CEM 32.2 µM | SK-MEL-2 23.7 µM | SK-MEL-5 20.9 µM | CAKI-1 47.4 µM | SNB-75 50 µM | NCI-H226 32.7 µM | A498 89.3 µM | Malme-3M 28.8 µM | SF-268 76.6 µM | M14 25.3 µM | IGROV-1 30.8 µM

N=C(N)NS(=O)(=O)c1ccc(NC(=O)c2cccc3cc4ccccc4nc23)cc1
inactive: SN12C > 100 µM | DLD-1 > 100 µM | UACC-62 > 100 µM | UO-31 > 100 µM | CCRF-CEM 6.56 µM | SK-MEL-2 > 100 µM | SK-MEL-5 > 100 µM | CAKI-1 > 100 µM | SNB-75 95.1 µM | NCI-H226 9.75 µM | A498 > 100 µM | Malme-3M > 100 µM | SF-268 88.5 µM | M14 > 100 µM | IGROV-1 > 100 µM

CC(C)=CC(=O)CC(=O)C(=O)Nc1ccc(C)c(C)c1
inactive: SN12C > 100 µM | DLD-1 > 100 µM | UACC-62 > 100 µM | UO-31 > 100 µM | CCRF-CEM > 100 µM | SR > 100 µM | SK-MEL-2 > 100 µM | CAKI-1 > 100 µM | SNB-75 > 100 µM | HOP-92 > 100 µM | NCI-H226 > 100 µM | Malme-3M > 100 µM | SF-268 > 100 µM | M14 > 100 µM | IGROV-1 > 100 µM

O/N=C1/C(=C/c2ccc(OCc3ccccc3)cc2)CCCC1C(NO)c1ccc(OCc2ccccc2)cc1 (stereo unspecified)
inactive: SN12C 3.31 µM | DLD-1 10.2 µM | UO-31 14.6 µM | CCRF-CEM 11.1 µM | SR 11.8 µM | SK-MEL-2 8.55 µM | SK-MEL-5 6.04 µM | CAKI-1 5.87 µM | SNB-75 34 µM | HOP-92 11.1 µM | NCI-H226 > 100 µM | A498 > 100 µM | Malme-3M 46.5 µM | M14 4.98 µM | IGROV-1 > 100 µM

CCc1ccccc1NC(=O)c1cccc([N+](=O)[O-])c1O
inactive: SN12C 31 µM | DLD-1 26.7 µM | UACC-62 9.93 µM | UO-31 22.2 µM | CCRF-CEM 28.2 µM | SK-MEL-5 8.89 µM | CAKI-1 25.1 µM | SNB-75 20.9 µM | HOP-92 14.4 µM | NCI-H226 29 µM | A498 25.3 µM | Malme-3M 24.4 µM | SF-268 25.2 µM | M14 47.5 µM | IGROV-1 23 µM

CCCN(CCC)C(=O)Cc1c2n(c3ccccc13)Cc1ccccc1-2
inactive: SN12C > 100 µM | DLD-1 63.4 µM | UACC-62 21.1 µM | UO-31 35.1 µM | CCRF-CEM > 100 µM | SR 33.1 µM | SK-MEL-2 94.4 µM | SK-MEL-5 29.6 µM | CAKI-1 30.1 µM | SNB-75 6.62 µM | HOP-92 5 µM | NCI-H226 > 100 µM | Malme-3M 58.9 µM | SF-268 > 100 µM | M14 > 100 µM

Source: ChEMBL document CHEMBL1201862, “PubChem BioAssay data set” (2004)
